Measured values taken from the supplement of paper PMC11061612.

Assays:
[1] = compound: Cn1cnc2c(F)c(Nc3ccc(Br)cc3Cl)c(C(=O)NOCCO)cc21 [Selumetinib]; conditions: max 10 µM
In short: (§1)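 Cancer cell lines were dosed for 72 hours (final DMSO typically 0.2%) after 24 hours at 37°C and 5% CO2 in 1536-well plates containing 7.5 μl DMEM/F12 or RPMI with 10% FBS. Viability came from CellTiter-Glo 2.0 luminescence, scaled between blank-well and DMSO-well means, and dose responses were fitted to a two-parameter logistic curve with a non-linear mixed effects model. The single-agent IC50 was obtained from this fit.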

[2] = compound: CC(=O)c1c(C)c2cnc(Nc3ccc(N4CCNCC4)cn3)nc2n(C2CCCC2)c1=O [Palbociclib]; conditions: max 10 µM
In short: as §1

[3] = compound: NC1(c2ccc(-c3nc4ccn5c(=O)[nH]nc5c4cc3-c3ccccc3)cc2)CCC1 [MK-2206]; conditions: max 10 µM
In short: as §1

[4] = compound: COc1cccc(OCCCN)c1-c1cc(Nc2cnc(C#N)cn2)n[nH]1 [Prexasertib]; conditions: max 1 µM
In short: as §1

[5] = compound: C=CCn1c(=O)c2cnc(Nc3ccc(N4CCN(C)CC4)cc3)nc2n1-c1cccc(C(C)(C)O)n1 [AZD1775]; conditions: max 3 µM
In short: as §1

[6] = compound: O=C(Nc1ccc2[nH]nc(-c3ccncc3)c2c1)[C@@H]1CCN(CC(=O)N2CCN(c3ccc(-c4ncccn4)cc3)CC2)C1; conditions: max 5 µM
In short: as §1

[7] = compound: CC1(C)CCC(CN2CCN(c3ccc(C(=O)NS(=O)(=O)c4ccc(NCC5CCOCC5)c([N+](=O)[O-])c4)c(Oc4cnc5[nH]ccc5c4)c3)CC2)=C(c2ccc(Cl)cc2)C1 [Venetoclax]; conditions: max 1 µM
In short: as §1

[8] = compound: COc1cc([C@@H]2c3cc4c(cc3[C@@H](O[C@@H]3O[C@@H]5CO[C@@H](C)O[C@H]5[C@H](O)[C@H]3O)[C@H]3COC(=O)[C@H]23)OCO4)cc(OC)c1O [Etoposide]; conditions: max 10 µM
In short: as §1

[9] = compound: O=c1[nH]cc(F)c(=O)[nH]1 [5-Fluorouracil]; conditions: max 20 µM
In short: as §1

[10] = compound: CN(C)CCCOc1ccc(-c2ccc3ncc4c(c3c2)n(C2CCOCC2)c(=O)n4C)cn1 [AZD0156]; conditions: max 3 µM
In short: as §1

[11] = compound: COc1cc2ncnc(Nc3ccc(F)c(Cl)c3)c2cc1OCCCN1CCOCC1 [Gefitinib]; conditions: max 10 µM
In short: as §1

[12] = compound: CC(=O)Nc1cccc(-n2c(=O)n(C3CC3)c(=O)c3c(Nc4ccc(I)cc4F)n(C)c(=O)c(C)c32)c1 [Trametinib]; conditions: max 1 µM
In short: as §1

[13] = compound: COc1cc(Nc2ncc3c(n2)-c2ccc(Cl)cc2C(c2c(F)cccc2OC)=NC3)ccc1C(=O)O [Alisertib]; conditions: max 10 µM
In short: as §1

[14] = compound: Cc1c2c(nn1C)CSCc1cc(n(C)n1)CSc1cc(c3ccccc3c1)OCCCc1c(C(=O)O)n(C)c3c-2c(Cl)ccc13 [AZD5991]; conditions: max 1 µM
In short: as §1

[15] = compound: C1CN(CCC1(C(=O)N[C@@H](CCO)C2=CC=C(C=C2)Cl)N)C3=NC=NC4=C3C=CN4 [AZD5363]; conditions: max 10 µM
In short: as §1

[16] = compound: C[C@@H](c1ccc2nccn2c1)n1nnc2ncc(-c3cnn(C)c3)nc21 [Savolitinib]; conditions: max 1 µM
In short: as §1

[17] = compound: Cc1nc(-c2cn3c(n2)-c2ccc(-c4cnn(C(C)(C)C(N)=O)c4)cc2OCC3)n(C(C)C)n1 [Taselisib]; conditions: max 10 µM
In short: as §1

[18] = compound: CC1=C(C(=CC=C1)Cl)NC(=O)C2=CN=C(S2)NC3=CC(=NC(=N3)C)N4CCN(CC4)CCO [Dasatinib]; conditions: max 2 µM
In short: as §1

[19] = compound: O=C(c1cc(Cc2n[nH]c(=O)c3ccccc23)ccc1F)N1CCN(C(=O)C2CC2)CC1 [Olaparib]; conditions: max 10 µM
In short: as §1

[20] = compound: CCN(CCO)CCCOc1ccc2c(Nc3cc(CC(=O)Nc4cccc(F)c4)[nH]n3)ncnc2c1 [AZD2811]; conditions: max 1 µM
In short: as §1

[21] = compound: Cc1cc2ncnn2cc1Nc1ncc2c(n1)n(C1CCOCC1)c(=O)n2C [AZD7648]; conditions: max 10 µM
In short: as §1

[22] = compound: COc1nnc2ccc(N3CCC(c4ccc(OCCN5CCN(C)C(=O)[C@H]5C)cc4)CC3)nn12 [AZD5153]; conditions: max 1 µM
In short: as §1

[23] = compound: C[C@@H](Oc1cc(-c2cnn(C3CCNCC3)c2)cnc1N)c1c(Cl)ccc(F)c1Cl [Crizotinib]; conditions: max 10 µM
In short: as §1

[24] = compound: CN(CC[C@H](CSC1=CC=CC=C1)NC2=C(C=C(C=C2)S(=O)(=O)NC(=O)C3=CC=C(C=C3)N4CCC(CC4)[C@H](C5=CC=CC=C5C6=CC=C(C=C6)Cl)O)S(=O)(=O)C(F)(F)F)CCO [AZD4320]; conditions: max 1 µM
In short: as §1

[25] = compound: CC1=CN2[C@@H](C1)C=NC3=CC(=C(C=C3C2=O)OC)OCCCCCOC4=C(C=C5C(=C4)N=C[C@@H]6CC(=CN6C5=O)C)OC [SG3199]; conditions: max 0.001 µM
In short: as §1

[26] = compound: N#Cc1cnc(Nc2cc(NC[C@H]3CNCCO3)c(C(F)(F)F)cn2)cn1 [SRA737]; conditions: max 10 µM
In short: as §1

[27] = compound: CS(=O)(=O)CCNCc1ccc(-c2ccc3ncnc(Nc4ccc(OCc5cccc(F)c5)c(Cl)c4)c3c2)o1 [Lapatinib]; conditions: max 10 µM
In short: as §1

[28] = compound: C[C@@H]1COCCN1C2=NC(=NC(=C2)C3(CC3)[S@](=N)(=O)C)C4=C5C=CNC5=NC=C4 [AZD6738]; conditions: max 10 µM
In short: as §1

[29] = compound: C1CC(C1)(C(=O)[O-])C(=O)[O-].N.N.[Pt+2] [Carboplatin]; conditions: max 10 µM
In short: as §1

[30] = compound: CCc1c2c(nc3ccc(O)cc13)-c1cc3c(c(=O)n1C2)COC(=O)[C@]3(O)CC [SN-38]; conditions: max 0.3 µM
In short: as §1

[31] = compound: C[C@@H](Nc1cc(F)cc(F)c1)c1cc(C(=O)N(C)C)cc2c(=O)cc(N3CCOCC3)oc12 [AZD8186]; conditions: max 10 µM
In short: as §1

[32] = compound: CC(=O)O[C@H]1C(=O)[C@@]2(C)[C@H]([C@H](OC(=O)c3ccccc3)[C@]3(O)C[C@H](OC(=O)[C@H](O)[C@@H](NC(=O)c4ccccc4)c4ccccc4)C(C)=C1C3(C)C)[C@]1(OC(C)=O)CO[C@@H]1C[C@@H]2O [Paclitaxel]; conditions: max 3 µM
In short: as §1

[33] = compound: COc1cccc2c1C(=O)c1c(O)c3c(c(O)c1C2=O)C[C@@](O)(C(=O)CO)C[C@@H]3O[C@H]1C[C@H](N)[C@H](O)[C@H](C)O1 [Doxorubicin]; conditions: max 1 µM
In short: as §1

[34] = compound: Nc1ccn([C@@H]2O[C@H](CO)[C@@H](O)C2(F)F)c(=O)n1 [Gemcitabine]; conditions: max 0.3 µM
In short: as §1

[35] = compound: CC(C)n1c(=O)n(C)c2cnc3cc(F)c(-c4ccc(OCCCN5CCCCC5)nc4)cc3c21 [AZD1390]; conditions: max 0.3 µM
In short: as §1

| Cell Line | IC50, cell viability 72 h [1] [nM] | IC50, cell viability 72 h [2] [nM] | IC50, cell viability 72 h [3] [nM] | IC50, cell viability 72 h [4] [nM] | IC50, cell viability 72 h [5] [nM] | IC50, cell viability 72 h [6] [nM] | IC50, cell viability 72 h [7] [nM] | IC50, cell viability 72 h [8] [nM] | IC50, cell viability 72 h [9] [nM] | IC50, cell viability 72 h [10] [nM] | IC50, cell viability 72 h [11] [nM] | IC50, cell viability 72 h [12] [nM] | IC50, cell viability 72 h [13] [nM] | IC50, cell viability 72 h [14] [nM] | IC50, cell viability 72 h [15] [nM] | IC50, cell viability 72 h [16] [nM] | IC50, cell viability 72 h [17] [nM] | IC50, cell viability 72 h [18] [nM] | IC50, cell viability 72 h [19] [nM] | IC50, cell viability 72 h [20] [nM] | IC50, cell viability 72 h [21] [nM] | IC50, cell viability 72 h [22] [nM] | IC50, cell viability 72 h [23] [nM] | IC50, cell viability 72 h [24] [nM] | IC50, cell viability 72 h [25] [nM] | IC50, cell viability 72 h [26] [nM] | IC50, cell viability 72 h [27] [nM] | IC50, cell viability 72 h [28] [nM] | IC50, cell viability 72 h [29] [nM] | IC50, cell viability 72 h [30] [nM] | IC50, cell viability 72 h [31] [nM] | IC50, cell viability 72 h [32] [nM] | IC50, cell viability 72 h [33] [nM] | IC50, cell viability 72 h [34] [nM] | IC50, cell viability 72 h [35] [nM] |
| --- | --- | --- | --- | --- | --- | --- | --- | --- | --- | --- | --- | --- | --- | --- | --- | --- | --- | --- | --- | --- | --- | --- | --- | --- | --- | --- | --- | --- | --- | --- | --- | --- | --- | --- | --- |
| HCC70 (Breast Carcinoma) | > 10000 | > 10000 | 1920 | 29.7 | 1000 | > 5000 | > 1000 | > 10000 | > 20000 | > 3000 | > 10000 | > 1000 | > 10000 | 201 | 2000 | > 1000 | 4260 | > 2000 | > 10000 | 224 | > 10000 | > 1000 | > 10000 | > 1000 | > 1 | 5460 | > 10000 | 3000 | > 10000 | > 300 | 2020 | 143 | > 1000 | > 300 | > 300 |
| HCC1395 (Breast Carcinoma) | > 10000 | > 10000 | > 10000 | 9.08 | 965 | > 5000 | > 1000 | > 10000 | > 20000 | > 3000 | > 10000 | > 1000 | > 10000 | > 1000 | > 10000 | > 1000 | > 10000 | > 2000 | > 10000 | > 1000 | > 10000 | > 1000 | > 10000 | > 1000 | > 1 | 2950 | > 10000 | 2790 | > 10000 | 173 | > 10000 | 206 | > 1000 | > 300 | > 300 |
| IM-9 (Non-Cancerous) | 218 | 4920 | > 10000 | 12.4 | 205 | 72.7 | > 1000 | 97.4 | 5020 | > 3000 | > 10000 | 6.11 | 26.5 | 667 | 6700 | > 1000 | > 10000 | > 2000 | > 10000 | 71.3 | > 10000 | 89.4 | 819 | 769 | > 1 | 1520 | 7530 | 1040 | > 10000 | 2.53 | > 10000 | 4.97 | 52.8 | 1.97 | > 300 |
| JHH-2 (Hepatocellular Carcinoma) | > 10000 | > 10000 | 5260 | 57.5 | 1860 | 3440 | > 1000 | > 10000 | > 20000 | > 3000 | > 10000 | 181 | > 10000 | > 1000 | 4770 | > 1000 | 3050 | 188 | > 10000 | > 1000 | > 10000 | > 1000 | > 10000 | > 1000 | > 1 | > 10000 | > 10000 | 6800 | > 10000 | 77.6 | 297 | 365 | > 1000 | > 300 | > 300 |
| JHU-022 (Oral Cavity Carcinoma) | 5560 | > 10000 | > 10000 | 94.4 | 1640 | 2720 | > 1000 | > 10000 | > 20000 | > 3000 | 811 | 219 | > 10000 | > 1000 | > 10000 | > 1000 | 515 | 431 | > 10000 | > 1000 | > 10000 | > 1000 | > 10000 | > 1000 | > 1 | > 10000 | 1930 | > 10000 | > 10000 | 35.7 | > 10000 | 2090 | 505 | 278 | > 300 |
